Source: PubChem BioAssay AID248 (DTP/NCI, 2004)
“And” between values parts separate entries of the source, which are not always exact repeats. Equal entries are not always repeated. Toxic doses and inconclusive results are not listed. Cut-off read from the data, not from the text of the source: active = T/C of 150% or more; inactive = T/C below 125%.

System: L1210 leukemia ip in BDF1 mice, survival T/C
Test: NCI In Vivo Anticancer Drug Screen. Data for tumor model L1210 Leukemia (intraperitoneal) in B6D2F1 (BDF1) mice
Conditions: higher = longer survival
In short: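 In this screen, tumor-bearing mice given compound are compared to those given vehicle, and their survival values are reported as a treated-to-control quotient.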

[1] = endpoint: mean survival time, dose: 50.0 mg/kg/injection, schedule: Q04DX003 (ip), vehicle: saline
[2] = endpoint: mean survival time, dose: 100.0 mg/kg/injection, schedule: Q01DX001 (ip), vehicle: carboxymethylcellulose (CMC)
[3] = endpoint: mean survival time, dose: 100.0 mg/kg/injection, schedule: Q04DX003 (ip), vehicle: saline
[4] = endpoint: mean survival time, dose: 200.0 mg/kg/injection, schedule: Q01DX001 (ip), vehicle: carboxymethylcellulose (CMC)
[5] = endpoint: mean survival time, dose: 200.0 mg/kg/injection, schedule: Q04DX003 (ip), vehicle: saline
[6] = endpoint: mean survival time, dose: 400.0 mg/kg/injection, schedule: Q01DX001 (ip), vehicle: carboxymethylcellulose (CMC)
[7] = endpoint: mean survival time, dose: 400.0 mg/kg/injection, schedule: Q04DX003 (ip), vehicle: saline
[8] = endpoint: mean survival time, dose: 100.0 mg/kg/injection, schedule: Q04DX003 (ip), vehicle: Klucel (hydroxypropylcellulose) (HPC)
[9] = endpoint: mean survival time, dose: 200.0 mg/kg/injection, schedule: Q04DX003 (ip), vehicle: Klucel (hydroxypropylcellulose) (HPC)
[10] = endpoint: mean survival time, dose: 400.0 mg/kg/injection, schedule: Q04DX003 (ip), vehicle: Klucel (hydroxypropylcellulose) (HPC)
[11] = endpoint: mean survival time, dose: 100.0 mg/kg/injection, schedule: Q04DX003 (ip), vehicle: saline with Tween-80
[12] = endpoint: mean survival time, dose: 200.0 mg/kg/injection, schedule: Q04DX003 (ip), vehicle: saline with Tween-80
[13] = endpoint: mean survival time, dose: 400.0 mg/kg/injection, schedule: Q04DX003 (ip), vehicle: saline with Tween-80
[14] = endpoint: mean survival time, dose: 50.0 mg/kg/injection, schedule: Q01DX001 (ip), vehicle: saline
[15] = endpoint: mean survival time, dose: 100.0 mg/kg/injection, schedule: Q01DX001 (ip), vehicle: saline
[16] = endpoint: mean survival time, dose: 200.0 mg/kg/injection, schedule: Q01DX001 (ip), vehicle: saline
[17] = endpoint: mean survival time, dose: 400.0 mg/kg/injection, schedule: Q01DX001 (ip), vehicle: saline
[18] = endpoint: mean survival time, dose: 100.0 mg/kg/injection, schedule: Q01DX009 (ip), vehicle: Klucel (hydroxypropylcellulose) (HPC)
[19] = endpoint: mean survival time, dose: 200.0 mg/kg/injection, schedule: Q01DX009 (ip), vehicle: Klucel (hydroxypropylcellulose) (HPC)
[20] = endpoint: mean survival time, dose: 400.0 mg/kg/injection, schedule: Q01DX009 (ip), vehicle: Klucel (hydroxypropylcellulose) (HPC)
[21] = endpoint: mean survival time, dose: 100.0 mg/kg/injection, schedule: Q01DX009 (ip), vehicle: saline with Tween-80
[22] = endpoint: mean survival time, dose: 100.0 mg/kg/injection, schedule: Q04DX002 (ip), vehicle: Klucel (hydroxypropylcellulose) (HPC)
[23] = endpoint: mean survival time, dose: 200.0 mg/kg/injection, schedule: Q04DX002 (ip), vehicle: Klucel (hydroxypropylcellulose) (HPC)
[24] = endpoint: mean survival time, dose: 400.0 mg/kg/injection, schedule: Q04DX002 (ip), vehicle: Klucel (hydroxypropylcellulose) (HPC)
[25] = endpoint: mean survival time, dose: 200.0 mg/kg/injection, schedule: Q01DX009 (ip), vehicle: saline with Tween-80
[26] = endpoint: mean survival time, dose: 50.0 mg/kg/injection, schedule: Q01DX009 (ip), vehicle: Klucel (hydroxypropylcellulose) (HPC)

Measured: T/C

CCN(CC)C(=S)S
inactive: [1] 101 % of control | [2] 106 % of control | endpoint: mean survival time, dose: 100.0 mg/kg/injection, schedule: Q01DX009 (ip), vehicle: other 107 % of control | [3] 103 % of control | endpoint: mean survival time, dose: 125.0 mg/kg/injection, schedule: Q01DX010 (ip), vehicle: saline 103 % of control and 90 % of control | [4] 96 % of control | endpoint: mean survival time, dose: 200.0 mg/kg/injection, schedule: Q01DX009 (ip), vehicle: other 103 % of control | [5] 106 % of control | endpoint: mean survival time, dose: 250.0 mg/kg/injection, schedule: Q01DX010 (ip), vehicle: saline 97 % of control and 87 % of control | [6] 102 % of control | endpoint: mean survival time, dose: 400.0 mg/kg/injection, schedule: Q01DX009 (ip), vehicle: other 102 % of control | [7] 103 % of control | endpoint: mean survival time, dose: 500.0 mg/kg/injection, schedule: Q01DX010 (ip), vehicle: saline 100 % of control and 91 % of control | endpoint: mean survival time, dose: 1000.0 mg/kg/injection, schedule: Q01DX010 (ip), vehicle: saline 114 % of control | endpoint: median survival time, dose: 500.0 mg/kg/injection, schedule: Q01DX001 (ip), vehicle: saline 103 % of control | endpoint: median survival time, dose: 1000.0 mg/kg/injection, schedule: Q01DX001 (ip), vehicle: saline 108 % of control

Fc1cc(F)c(F)c(Oc2c(F)c(F)c(F)c(F)c2F)c1F
inactive: [8] 100 % of control | [9] 95 % of control | [10] 93 % of control

CCCCN(CCCC)CCC(=O)OCC
inactive: [11] 94 % of control | [12] 101 % of control | [13] 89 % of control

Nc1nc(-c2ccccc2)c(CCCOc2ccccc2)c(=O)[nH]1
inactive: endpoint: mean survival time, dose: 12.5 mg/kg/injection, schedule: Q01DX009 (ip), vehicle: gum acacia 95 % of control | endpoint: mean survival time, dose: 25.0 mg/kg/injection, schedule: Q01DX009 (ip), vehicle: gum acacia 109 % of control | endpoint: mean survival time, dose: 50.0 mg/kg/injection, schedule: Q01DX009 (ip), vehicle: gum acacia 100 % of control | endpoint: mean survival time, dose: 100.0 mg/kg/injection, schedule: Q01DX009 (ip), vehicle: gum acacia 92 % of control and 90 % of control | endpoint: mean survival time, dose: 400.0 mg/kg/injection, schedule: Q01DX009 (ip), vehicle: gum acacia 96 % of control

Cc1c(C)c(C)c(Br)c(C)c1C
inactive: [14] 108 % of control | [15] 108 % of control | [16] 108 % of control | [17] 108 % of control

Cc1cccc(C2CCCC2c2ccccc2)c1 (stereo not drawn)
inactive: [18] 96 % of control | [8] 110 % of control | [19] 89 % of control | [9] 94 % of control | [20] 101 % of control | [10] 108 % of control

CC1(C)SCC(C(=O)N2CCCC2C(=O)OC2CCCCC2)N1C=O (stereo not drawn)
inactive: [3] 92 % of control | [7] 97 % of control

O/N=C/c1ccccc1
inactive: endpoint: mean survival time, dose: 66.0 mg/kg/injection, schedule: Q01DX009 (ip), vehicle: saline with Tween-80 87 % of control | [21] 96 % of control | endpoint: mean survival time, dose: 150.0 mg/kg/injection, schedule: Q01DX009 (ip), vehicle: saline with Tween-80 95 % of control

CCOc1ccc(CCOC(C)=O)cc1
inactive: [22] 97 % of control | [23] 101 % of control | [24] 101 % of control

CC(C)C12CCC(=O)C=C1CCCC2OC(=O)c1ccccc1C(=O)O (stereo not drawn)
inactive: [11] 101 % of control | [12] 100 % of control

O=C(O)C(O)c1cccc2ccccc12 (stereo not drawn)
inactive: [21] 100 % of control | [25] 100 % of control

O=[N+]([O-])c1cc(Br)ccc1O
inactive: [3] 100 % of control | [5] 89 % of control

O=C(COc1ccc(Cl)cc1)NCCc1ccccc1
inactive: [18] 97 % of control | [19] 92 % of control | [20] 98 % of control

C=CCOCC(O)CN(C)CCCC (stereo not drawn)
inactive: endpoint: mean survival time, dose: 25.0 mg/kg/injection, schedule: Q04DX003 (ip), vehicle: saline 101 % of control | [26] 100 % of control | [1] 97 % of control | [18] 94 % of control | [3] 103 % of control and 91 % of control

Cc1cccc(Cl)c1NC(=O)c1cccc(C(=O)Nc2c(C)cccc2Cl)c1
inactive: [18] 96 % of control | [19] 94 % of control | [20] 91 % of control

Cc1ncc(C)c(=O)[nH]1
inactive: endpoint: mean survival time, dose: 44.0 mg/kg/injection, schedule: Q01DX Z (ip), vehicle: saline 100 % of control | endpoint: mean survival time, dose: 67.0 mg/kg/injection, schedule: Q01DX Z (ip), vehicle: saline 105 % of control | endpoint: mean survival time, dose: 100.0 mg/kg/injection, schedule: Q01DX Z (ip), vehicle: saline 105 % of control | [3] 93 % of control | endpoint: mean survival time, dose: 150.0 mg/kg/injection, schedule: Q01DX Z (ip), vehicle: saline 91 % of control | [5] 96 % of control

CCOc1ccccc1/C=N/NC(=O)C(O)(c1ccccc1)c1ccccc1
inactive: [2] 101 % of control | [4] 101 % of control | [6] 97 % of control

CCCCCCCCCCCCCCCC(=O)N(c1ccc(N)cc1)C(C)CCCN(CC)CC (stereo not drawn)
inactive: [21] 100 % of control | [11] 98 % of control | [25] 100 % of control | [12] 97 % of control | endpoint: mean survival time, dose: 400.0 mg/kg/injection, schedule: Q01DX009 (ip), vehicle: saline with Tween-80 100 % of control | [13] 90 % of control

O=C1C=CC(=O)N1C(c1ccccc1)c1ccccc1
inactive: endpoint: mean survival time, dose: 12.5 mg/kg/injection, schedule: Q01DX009 (ip), vehicle: Klucel (hydroxypropylcellulose) (HPC) 102 % of control | endpoint: mean survival time, dose: 25.0 mg/kg/injection, schedule: Q01DX009 (ip), vehicle: Klucel (hydroxypropylcellulose) (HPC) 102 % of control | [26] 102 % of control | endpoint: mean survival time, dose: 50.0 mg/kg/injection, schedule: Q04DX002 (ip), vehicle: Klucel (hydroxypropylcellulose) (HPC) 94 % of control | [22] 88 % of control | [23] 101 % of control and 116 % of control and 91 % of control | [24] 91 % of control

C=CCSCC(=O)c1ccccc1
inactive: [26] 90 % of control | [18] 94 % of control | [8] 101 % of control | [19] 90 % of control | [9] 97 % of control | [10] 100 % of control

NNC(=O)NO
inactive: endpoint: mean survival time, dose: 33.0 mg/kg/injection, schedule: Q01DX009 (ip), vehicle: saline 114 % of control | endpoint: mean survival time, dose: 75.0 mg/kg/injection, schedule: Q01DX001 (ip), vehicle: saline 101 % of control | endpoint: mean survival time, dose: 150.0 mg/kg/injection, schedule: Q01DX001 (ip), vehicle: saline 103 % of control

CC(C)CCNCC(C)OC(=O)c1ccc([N+](=O)[O-])cc1 (stereo not drawn)
inactive: endpoint: mean survival time, dose: 75.0 mg/kg/injection, schedule: Q01DX001 (ip), vehicle: other 98 % of control | endpoint: mean survival time, dose: 150.0 mg/kg/injection, schedule: Q01DX001 (ip), vehicle: other 106 % of control | endpoint: mean survival time, dose: 300.0 mg/kg/injection, schedule: Q01DX001 (ip), vehicle: other 95 % of control

Cc1cccc(NC(=O)Oc2ccc(Nc3ccccc3)cc2)c1
inactive: [18] 96 % of control | [19] 102 % of control | [20] 98 % of control

O=C(NCCBr)C(F)(F)F
inactive: endpoint: mean survival time, dose: 25.0 mg/kg/injection, schedule: Q01DX009 (ip), vehicle: saline 113 % of control | endpoint: mean survival time, dose: 50.0 mg/kg/injection, schedule: Q01DX009 (ip), vehicle: saline 103 % of control | [15] 104 % of control | endpoint: mean survival time, dose: 100.0 mg/kg/injection, schedule: Q01DX009 (ip), vehicle: saline 105 % of control | [16] 109 % of control | [17] 112 % of control

CC(C)(C)C1CCC2(CC1)CCN(CCCN1CCCCCC1)CC2
inactive: [14] 96 % of control | [15] 107 % of control

Cc1cc(C)c([N+](=O)[O-])c(C)c1
inactive: [18] 104 % of control | [19] 97 % of control | [20] 92 % of control

CCOC(=O)COc1ccc(Cl)cc1
inactive: [18] 97 % of control | [19] 103 % of control | [20] 92 % of control
